According to the CheMixHub ionic liquid set:

Experiment: xn = mol fraction of the nth substance listed

C[N+](C)(C)Cc1ccccc1.[Cl-] + O=C([O-])c1ccccc1O.[Na+] + O
viscosity [mPa·s], 100 kPa
Details	298.15 K	303.15 K	308.15 K	313.15 K	318.15 K
x1 = 9.698e-05, x2 = 0.001545	0.924	0.833	0.75	0.651	0.564
x1 = 9.701e-05, x2 = 0.00127	0.916	0.827	0.744	0.648	0.561
x1 = 9.703e-05, x2 = 0.0009982	0.91	0.821	0.739	0.642	0.557
x1 = 9.706e-05, x2 = 0.0007245	0.905	0.816	0.734	0.637	0.551
x1 = 9.709e-05, x2 = 0.0004525	0.9	0.811	0.729	0.633	0.547
x1 = 9.711e-05, x2 = 0.0001803	0.896	0.807	0.725	0.629	0.543
x1 = 0.0002915, x2 = 0.001548	0.926	0.836	0.753	0.648	0.56
x1 = 0.0002916, x2 = 0.001	0.915	0.824	0.742	0.639	0.552
x1 = 0.0002916, x2 = 0.001272	0.921	0.83	0.747	0.644	0.556
x1 = 0.0002917, x2 = 0.0007258	0.909	0.819	0.736	0.635	0.547
x1 = 0.0002918, x2 = 0.0004533	0.903	0.814	0.732	0.63	0.544
x1 = 0.0002919, x2 = 0.0001807	0.898	0.809	0.727	0.625	0.539
x1 = 0.0004867, x2 = 0.001551	0.932	0.843	0.759	0.664	0.577
x1 = 0.0004868, x2 = 0.001275	0.926	0.836	0.753	0.659	0.572
x1 = 0.0004869, x2 = 0.001002	0.919	0.831	0.748	0.654	0.568
x1 = 0.0004871, x2 = 0.0007272	0.914	0.825	0.743	0.648	0.563
x1 = 0.0004872, x2 = 0.0004542	0.907	0.82	0.737	0.644	0.558
x1 = 0.0004873, x2 = 0.000181	0.903	0.815	0.732	0.64	0.554

CC[n+]1ccn(C)c1.O=S(=O)([N-]S(=O)(=O)C(F)(F)F)C(F)(F)F + O=S(=O)([N-]S(=O)(=O)C(F)(F)F)C(F)(F)F.[Li+]
101 kPa, x1 = 1
Details	electrical conductivity [S/m]	viscosity [mPa·s]
288.15 K	0.611	–
298.15 K	0.883	–
313.15 K	–	19.26
333.15 K	2.18	–
343.15 K	–	9.46

CC[n+]1ccn(C)c1.O=S(=O)([N-]S(=O)(=O)C(F)(F)F)C(F)(F)F + O=S(=O)([O-])C(F)(F)F.[Li+]
101 kPa, x1 = 1
Details	electrical conductivity [S/m]
288.15 K	0.611
298.15 K	0.883
333.15 K	2.18

C[N+](C)(C)Cc1ccccc1.[Cl-] + OCC(O)CO
Details	electrical conductivity, 298 K [S/m]	viscosity, 288.15 K [mPa·s]	viscosity, 308 K [mPa·s]
100 kPa, x1 = 0.25	–	1875	–
101.13 kPa, x1 = 0.5	0.069	–	80

CCCCCCCCCCCC[P+](CCCC)(CCCC)CCCC.N#Cc1ccc[n-]1 + OCCN(CCO)CCO
100 kPa
Details	electrical conductivity [S/m]	viscosity [mPa·s]
293.15 K, x1 = 0.001	0.0001	–
293.15 K, x1 = 0.015	0.0027	–
293.15 K, x1 = 0.035	0.0034	1037
293.15 K, x1 = 0.121	–	1056
293.15 K, x1 = 0.538	0.0049	770
293.15 K, x1 = 1	0.0082	567
298.15 K, x1 = 0.035	–	670
298.15 K, x1 = 0.325	–	623
298.15 K, x1 = 0.755	–	477
298.15 K, x1 = 1	–	389
303.15 K, x1 = 0.017	–	436
303.15 K, x1 = 0.054	–	439
303.15 K, x1 = 0.325	–	421
303.15 K, x1 = 0.755	–	336
303.15 K, x1 = 1	–	297
313.15 K, x1 = 0.096	–	217
313.15 K, x1 = 0.325	–	209

CC[n+]1ccn(C)c1.F[B-](F)(F)F + OCCO
Details	viscosity [mPa·s]
293.15 K, 100 kPa, x2 = 0.6954	14.9
298.15 K, 100 kPa, x2 = 0.283	19.8
298.15 K, 100 kPa, x2 = 0.4435	15.1
303.15 K, 100 kPa, x2 = 0	34.5
303.15 K, 101 kPa, x1 = 0.4011	9.88
313.15 K, 100 kPa, x2 = 0.4435	9.71
313.15 K, 101 kPa, x1 = 0.4011	7.3
323.15 K, 100 kPa, x2 = 0.4435	7.57
323.15 K, 100 kPa, x2 = 0.5876	6.34
333.15 K, 100 kPa, x2 = 0.4435	6.08
333.15 K, 100 kPa, x2 = 0.5237	5.44
333.15 K, 100 kPa, x2 = 0.8751	4.42
333.15 K, 101 kPa, x1 = 0.0993	4.28
333.15 K, 101 kPa, x1 = 0.2001	4.08
343.15 K, 100 kPa, x2 = 0.4435	5.01
343.15 K, 100 kPa, x2 = 0.5876	4.13
353.15 K, 100 kPa, x2 = 0	9.58
353.15 K, 100 kPa, x2 = 0.5876	3.46
353.15 K, 100 kPa, x2 = 0.6954	3.07
353.15 K, 100 kPa, x2 = 0.7916	2.9

C[N+](CCO)(CCO)CCOCCO.[Cl-] + OCCO
101 kPa, x1 = 0.3322
Details	viscosity [mPa·s]
283.15 K	474
288.15 K	335
293.15 K	243.1
298.15 K	179.2
303.15 K	136.1
308.15 K	104.7
313.15 K	81.8
318.15 K	65.1
323.15 K	52.4
328.15 K	42.78
333.15 K	35.43
338.15 K	29.52
343.15 K	24.91
348.15 K	21.24
353.15 K	18.37

CC[n+]1ccn(C)c1.O=S(=O)([N-]S(=O)(=O)C(F)(F)F)C(F)(F)F + OCCOCCOCCOCCO
Details	viscosity [mPa·s]
298.15 K, 101 kPa, x2 = 0	32.3

CC[n+]1ccn(C)c1.O=S(=O)([N-]S(=O)(=O)C(F)(F)F)C(F)(F)F + [I-].[Li+]
101 kPa, x1 = 1
Details	electrical conductivity [S/m]
288.15 K	0.611
298.15 K	0.883
333.15 K	2.18
